Experimental data: paper PMC5516028, “Molecular tools for GABAA receptors: High affinity ligands for β1-containing subtypes” (Scientific Reports, 2017)

Legend:
[1] = molecular target: benzodiazepine binding site, rat cerebellum membranes; assay: [3H]flunitrazepam saturation binding, rat cerebellar membranes; conditions: n = 3, read-out: equilibrium binding constant KD
Method: In brief, membrane pellets were incubated for 90 min at 4 °C in a total of 500 µL of a solution containing 50 mM Tris/citrate buffer, pH = 7.1, 150 mM NaCl and 2 nM [^3H]flunitrazepam in the absence or presence of either 5 µM diazepam (to determine unspecific binding) or various concentrations of receptor ligands (dissolved in DMSO, final DMSO-concentration 0.5%). Membranes were filtered through Whatman GF/B filters and washed twice with 4 mL of ice-cold 50 mM Tris/citrate buffer. Filters were transferred to scintillation vials and subjected to scintillation counting after the addition of 3 mL Rotiszint Eco plus liquid scintillation cocktail. Nonlinear regression analysis of the displacement curves used the equation: log(inhibitor) vs. response - variable slope with Top = 100% and Bottom = 0% Y = 100/(1 + 10^((logIC50-x)*Hillslope)).

[2] = test system: γ2 subunit containing GABAA receptors; assay: Control of γ2 subunit incorporation with diazepam; format: cell-based, rat; conditions: 1 µM
Method: (§1) For electrophysiological recordings, oocytes were placed on a nylon-grid in a bath of Ca^2+-containing NDE solution medium [96 mM NaCl, 5 mM HEPES-NaOH (pH 7.5), 2 mM KCl, 1 mM MgCl2, 1.8 mM CaCl2]. For current measurements the oocytes were impaled with two microelectrodes (1–3 MΩ resistance) filled with 2 M KCl. […] The EC3–5 was determined at the beginning of each experiment. Drugs were diluted into NDE from DMSO-solutions resulting in a final concentration of 0.1% DMSO perfusing the oocytes. […] Between two applications, oocytes were washed in NDE for up to 15 min to ensure full recovery from desensitization. […] All recordings were performed at room temperature at a holding potential of […] using a Dagan TEV-200A two-electrode voltage clamp (Dagan Corporation, Mineapolis, MN). Data were digitized, recorded and measured using an Axon Digidata- 1550 low-noise data acquisition system (Axon Instruments, Union City, CA).

[3] = molecular target: T1, γ1 subunit containing GABAA receptors (Rattus norvegicus, UniProt P15431+P62813); assay: Control of γ1 subunit incorporation with triazolam; format: cell-based; conditions: 10 µM
T1 construct: expressed in transfected cells; host or cells: Xenopus laevis oocytes, mRNA injected
T1 sequence (P62813 28-455): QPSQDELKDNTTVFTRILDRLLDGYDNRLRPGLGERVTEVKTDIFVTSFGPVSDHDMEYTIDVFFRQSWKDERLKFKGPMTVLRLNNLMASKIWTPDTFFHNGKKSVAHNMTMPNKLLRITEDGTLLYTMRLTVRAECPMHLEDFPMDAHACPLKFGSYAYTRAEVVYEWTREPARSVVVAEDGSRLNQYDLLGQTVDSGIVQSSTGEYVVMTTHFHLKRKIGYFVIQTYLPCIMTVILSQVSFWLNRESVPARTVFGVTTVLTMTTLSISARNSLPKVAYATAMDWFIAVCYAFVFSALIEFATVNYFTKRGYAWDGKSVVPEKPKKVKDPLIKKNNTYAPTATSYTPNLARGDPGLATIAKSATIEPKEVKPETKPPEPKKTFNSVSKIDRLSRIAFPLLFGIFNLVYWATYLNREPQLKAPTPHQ
T1 sequence (P15431 26-474): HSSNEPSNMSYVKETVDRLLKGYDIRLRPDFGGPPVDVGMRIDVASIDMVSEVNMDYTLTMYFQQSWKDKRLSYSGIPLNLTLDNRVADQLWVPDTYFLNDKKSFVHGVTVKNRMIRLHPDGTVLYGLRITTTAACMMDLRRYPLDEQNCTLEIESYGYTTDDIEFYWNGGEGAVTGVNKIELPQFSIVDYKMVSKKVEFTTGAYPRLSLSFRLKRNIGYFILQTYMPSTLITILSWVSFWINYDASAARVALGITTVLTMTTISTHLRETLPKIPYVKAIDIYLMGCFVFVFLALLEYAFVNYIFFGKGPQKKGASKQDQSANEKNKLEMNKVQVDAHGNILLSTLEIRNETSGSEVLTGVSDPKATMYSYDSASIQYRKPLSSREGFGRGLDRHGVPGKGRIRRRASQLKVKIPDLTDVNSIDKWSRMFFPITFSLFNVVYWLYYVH
T1 sequence (P23574 36-465 partner limits assumed): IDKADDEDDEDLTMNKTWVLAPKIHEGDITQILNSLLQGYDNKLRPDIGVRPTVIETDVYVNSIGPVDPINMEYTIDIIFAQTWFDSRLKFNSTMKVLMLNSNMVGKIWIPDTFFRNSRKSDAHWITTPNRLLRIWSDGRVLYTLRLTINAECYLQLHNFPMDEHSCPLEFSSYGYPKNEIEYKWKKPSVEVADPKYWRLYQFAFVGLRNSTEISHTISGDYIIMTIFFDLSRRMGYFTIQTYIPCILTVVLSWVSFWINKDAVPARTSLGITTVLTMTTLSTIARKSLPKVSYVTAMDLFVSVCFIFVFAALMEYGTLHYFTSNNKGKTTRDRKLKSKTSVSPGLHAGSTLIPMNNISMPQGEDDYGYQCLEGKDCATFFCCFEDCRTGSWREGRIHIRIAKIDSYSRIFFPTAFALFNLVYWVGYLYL
Method: as §1

With `CN1C(=O)CN=C(c2ccccc2F)c2cc([N+](=O)[O-])ccc21` [[^3H]flunitrazepam] the Kd [1] was 4.8 ± 0.3 nM.

In the case of `CN1C(=O)CN=C(c2ccccc2)c2cc(Cl)ccc21` [diazepam, Diazepam], the modulation [2] is reported as ~ 200%.

`Cc1nnc2n1-c1ccc(Cl)cc1C(c1ccccc1Cl)=NC2` [triazolam, Triazolam] was tested, and the modulation [3] was over 200%.
